From the NIST ThermoML archive (doi:10.1021/je201080c)

Tests used:
[1] = refractive index (Na D-line) (dimensionless); conditions: 101.33 kPa, Liquid, Standard Abbe refractometry
[2] = for viscosity / mass density: 101.33 kPa, Liquid; for viscosity: Surface Light Scattering; for mass density: Vibrating tube method; for surface tension liquid-gas: Pendant drop shape

CCn1cc[n+](C)c1.N#C[B-](C#N)(C#N)C#N [1-ethyl-3-methylimidazolium tetracyanoborate]
Conditions	mass density, [2] [kg/m3]	refractive index, [1]	surface tension liquid-gas, [2] [mN/m]	viscosity, [2] [mPa·s]
283.15 K	1048.33	1.4533	–	37.06
288.15 K	1044.31	–	–	27.75
293.15 K	1040.31	1.4499	–	21.79
297.04 K	–	–	47.09	–
298.15 K	1036.34	–	–	–
303.15 K	1032.4	1.4465	–	14.65
308.15 K	1028.48	–	–	–
313.15 K	1024.59	1.4432	43.29	10.09
318.15 K	1020.72	–	–	–
323.15 K	1016.87	–	41.6	7.61
328.15 K	1013.06	–	–	–
333.15 K	1009.26	–	39.53	5.77
338.15 K	1005.49	–	–	–
343.15 K	1001.74	–	38.33	4.67
348.15 K	998.01	–	–	–
353.15 K	994.28	–	36.52	3.7
358.15 K	990.59	–	–	–
363.15 K	986.92	–	35.8	3.16
